≈ marks a conversion by molar mass, not a printed value. Where a name gives a salt, the structure may show the parent alone. Read-outs that look alike come from different tables or passages of the source.
Tests used:
[1] = in vivo; cited from earlier work
[2] = system: anaerobes, in particular Gram-positive anaerobes; conditions: cited from earlier work
[3] = First-in-Man study: iv. bolus or 20 min infusion of Compound 1; type: in vivo, humans; conditions: for AUC / Cmax: male, human, plasma, mean
Method: Volunteers were administered doses of up to 3.0 mg/kg body weight (BW) of Compound 1 given as iv. bolus injection of 2 min duration. Additionally, doses of 1.5 and 3.0 mg/kg BW of Compound 1 were administered as a short-term infusion of 20 min duration, resulting in infusion rates of 4.5 and 9.0 mg/(kg BW×h), respectively.

[4] = Solubility in aqueous media; type: physicochemical
Gram-negative species = assay: Fecal microflora after i.v. infusions in healthy volunteers; type: in vivo, human; conditions: Compound 1 i.v. 6 mg/kg over 12 hours for 5 days
Method: (§1) Healthy human volunteers received i.v. infusions of Compound 1 at a dose of 6 mg/kg body weight over 12 hours for 5 consecutive days. […] Viable counts of lactobacilli were reduced from predose to Day 5 by 4.0 log 10 CFU/g. […] Likewise, enterococci were reduced from predose to Day 5 by 3.8 log 10 CFU/g on average.

[5] = system: Staphylococcus aureus ATCC 33593; assay: MIC testing according to CLSI guidelines; type: cell-based; conditions: ATCC33593
Source text: (§2) MIC testing was done according to CLSI (formerly NCCLS) guidelines: Performance Standards for Antimicrobial Susceptibility Testing 11th Informational Supplement, Vol. 21 No 1, M100-S11, January 2001. NCCLS. Revised edition: 17th Informational Supplement, Vol. 27 No 1, […], January 2007.

[6] = system: Staphylococcus aureus ATCC 29213; assay: MIC testing according to CLSI guidelines; type: cell-based; conditions: ATCC29213
Source text: as §2

[7] = system: Staphylococcus aureus ATCC 43300; assay: MIC testing according to CLSI guidelines; type: cell-based; conditions: ATCC43300
Source text: as §2

[8] = system: Enterococcus faecalis ATCC 29212; assay: MIC testing according to CLSI guidelines; type: cell-based; conditions: ATCC29212
Source text: as §2

[9] = system: Staphylococcus aureus NRS 120; assay: MIC testing according to CLSI guidelines; type: cell-based; conditions: NRS120
Source text: as §2

[10] = system: Enterococcus faecalis ATCC 51299; assay: MIC testing according to CLSI guidelines; type: cell-based; conditions: ATCC51299
Source text: as §2

[11] = system: Staphylococcus aureus Visa Mu 50; assay: MIC testing according to CLSI guidelines; type: cell-based
Source text: as §2

[12] = system: Streptococcus pneumoniae ATCC 33400; assay: MIC testing according to CLSI guidelines; type: cell-based; conditions: ATCC33400
Source text: as §2

Clostridium difficile = assay: Antimicrobial susceptibility of 114 C. difficile strains by agar dilution method; type: cell-based; conditions: for MIC50: Clostridioides difficile, read-out: MIC50
Method: One hundred fourteen Clostridium difficile strains were collected from 67 patients and analyzed for the presence of C. difficile toxin B by the cell cytotoxicity neutralization assay, genes for toxin A, toxin B, binary toxin and TcdC deletion by PCR. All strains were also PCR-ribotyped. The MICs of the isolates were determined against Compound 2 by the agar dilution method. All isolates were positive for toxin B. One hundred thirteen isolates were positive for toxin A and B genes. In addition, 13 isolates were positive for the binary toxin genes. Thirty-two different ribotypes were identified. No strain of ribotype 027 was found.
One hundred fourteen C. difficile strains were selected from patients (26 males and 41 females) with primary and/or recurrent CDI. The mean age of the patients was 74 years (age range 19-97 years). The strains (67 primary and 47 recurrent isolates) were identified by characteristic colony morphology, typical smell and Gram staining. Gas chromatography was used to detect volatile, short chain fatty acids production by the C. difficile strains for the final identification.
The antimicrobial susceptibility of the C. difficile strains was determined according to CLSI guidelines by the agar dilution method using Bacteroides fragilis ATCC 25285 and C. difficile ATCC 700057 as reference strains [CLSI. Methods for Antimicrobial Susceptibility Testing of Anaerobic Bacteria; Approved Standard-Eighth Edition. 2012].
MIC was defined as the lowest concentration of the drug that inhibited growth completely. MIC50/90 corresponds to the concentrations that inhibit the growth of 50% and 90%, of the strains tested, respectively.
PCR ribotype profiles from clinical isolates were compared to those profiles which define the database by maximum matching with Pearson correlation. IBM SPSS Statistics 22 (Armonk, N.Y., USA) software was used to calculate the percentiles 50 and 90 of the MIC results. Descriptive statistics were used to summarize the results.

bifidobacteria = assay: Fecal microflora viable counts after i.v. infusions in healthy volunteers; type: in vivo, human; conditions: Compound 1 i.v. 6 mg/kg over 12 hours for 5 days
Method: as §1

lactobacilli = assay: as above; type: in vivo, human; conditions: Compound 1 i.v. 6 mg/kg over 12 hours for 5 days
Method: as §1

enterococci = assay: as above; type: in vivo, human; conditions: Compound 1 i.v. 6 mg/kg over 12 hours for 5 days
Method: as §1

Clostridium spp. = assay: as above; type: in vivo, human
Method: as §1

[13] = system: Clostridium difficile infections (CDI); conditions: oral administration; cited from earlier work
C difficile [14] = conditions: cited from earlier work
C difficile [15] = conditions: cited from earlier work; remark: listed apart in the source
[16] = cited from earlier work
[17] = intravenous, Drug after 3.0 mg/kg BW Compound 1, 20 min infusion, 9.0 mg/(kg BW·h)
[18] = Drug after 3.0 mg/kg BW Compound 1 iv. bolus
[19] = 114 C. difficile strains, agar dilution

In the case of O=C(O)c1cn(C2CC2)c2cc(N3CCNCC3)c(F)cc2c1=O [Ciprofloxacin], the Fecal concentrations [1] is listed as “high” and the “Activity in vitro against anaerobes” value [2] is listed as “neither active in vitro”.

With CC(=O)NC[C@H]1CN(c2ccc(OCC3(OP(=O)(O)O)CCN(c4cc5c(cc4F)c(=O)c(C(=O)O)cn5C4CC4)CC3)c(F)c2)C(=O)O1 [Compound 1, sodium salt of 7-(4-{4-[(5S)-5-(Acetylamino-methyl)-2-oxo-oxazolidin-3-yl]-2-fluoro-phenoxymethyl}-4-phosphonooxy-piperidin-1-yl)-1-cyclopropyl-6-fluoro-4-oxo-1,4-dihydro-quinoline-3-carboxylic acid] the “AUC of the Prodrug, 20 min infusion compared to bolus administration” value ([3]; 3.0 mg/kg BW) was “lower AUC”, the “Conversion of the Prodrug to the Drug” value ([3]; humans, all doses applied) was “very rapid conversion” and the “Solubility in aqueous media” value [4] was “very good solubility”.

In the case of CC(=O)NC[C@H]1CN(c2ccc(OCC3(O)CCN(c4cc5c(cc4F)c(=O)c(C(=O)O)cn5C4CC4)CC3)c(F)c2)C(=O)O1 [Compound 2, 7-(4-{4-[(5S)-5-(Acetylamino-methyl)-2-oxo-oxazolidin-3-yl]-2-fluoro-phenoxymethyl}-4-hydroxy-piperidin-1-yl)-1-cyclopropyl-6-fluoro-4-oxo-1,4-dihydro-quinoline-3-carboxylic acid], the “Effect of exposure of the fecal flora on Gram-negative species” value (Gram-negative species) is reported as “did not affect”, the AUC [3, 17] is reported as 3230 ng·h/mL and the Cmax [3, 17] is reported as 3180 ng/mL. The AUC [3, 18] was 2170 ng·h/mL, the Cmax [3, 18] was 2450 ng/mL and the MIC [5] was 0.25 µg/mL (≈ 0.399 µM). It also gave an MIC [6] of 0.5 µg/mL (≈ 0.798 µM), an MIC [7] of 0.5 µg/mL (≈ 0.798 µM) and an MIC [8] of 0.25 µg/mL (≈ 0.399 µM). For the same compound, the MIC [9] was 2 µg/mL (≈ 3.19 µM), the MIC [10] was 0.25 µg/mL (≈ 0.399 µM) and the MIC [11] was 0.5 µg/mL (≈ 0.798 µM). The MIC [12] was 0.03 µg/mL (≈ 0.0479 µM), the MIC range (Clostridium difficile; 114 C. difficile isolates, agar dilution) was 0.008-0.5 mg/1 and the MIC90 (Clostridium difficile; [19]) was 0.064 mg/1. For the same compound, the “MIC range” value (Clostridium difficile; [19]) was 0.008 to 0.5 mg/L, the MIC50 (Clostridium difficile) was 0.064 µg/mL (≈ 0.102 µM) and the MIC50 (Clostridium difficile; [19]) was 0.032 µg/mL (≈ 0.0511 µM). For the same compound, the “Susceptibility of the C. difficile isolates” value (Clostridium difficile; all 114 isolates) was “sensitive”, the “Reduction of viable counts of bifidobacteria from predose to Day 5” value (bifidobacteria) was 7.9 log 10 CFU/g and the “Reduction of viable counts of lactobacilli from predose to Day 5” value (lactobacilli) was 4.0 log 10 CFU/g. For the same compound, the “Reduction of enterococci from predose to Day 5, on average” value (enterococci) was 3.8 log 10 CFU/g, the “Reduction of viable counts of Clostridium spp. from predose to Day 5” value (Clostridium spp.; Compound 1 i.v. 6 mg/kg over 12 hours for 5 days) was 3.0 log 10 CFU/g and the “Viable counts of Clostridium spp. until Day 3 postdose” value (Clostridium spp.; all except one of the volunteers) was “reduced below the limit of detection”.

In the case of CCc1c(Cl)c(O)c(Cl)c(O)c1C(=O)O[C@H]1[C@H](O)[C@H](OC)[C@H](OC/C2=C\C=C\C[C@H](O)/C(C)=C/[C@H](CC)[C@@H](O[C@@H]3OC(C)(C)[C@@H](OC(=O)C(C)C)[C@H](O)[C@@H]3O)/C(C)=C/C(C)=C/C[C@@H]([C@@H](C)O)OC2=O)O[C@@H]1C [fidaxomicin], the “Frequency of recurrence of CDI” value [13] is listed as “approximately 13%”.

In the case of CC(=O)NC[C@H]1CN(c2ccc(N3CCOCC3)c(F)c2)C(=O)O1 [linezolid], the “Activity in vitro against C difficile” value (C difficile [14]) is given as “active”, the “Activity in an in vitro human gut model” value (C difficile [15]) is given as “inactive” and the Fecal concentrations [1] is given as “negligibly low”. For the same compound, the “Fraction of the dose excreted via the feces” value [1] was 0.2 % of the dose.

For Cc1ncc([N+](=O)[O-])n1CCO [metronidazole], the “Toxicity associated with long term treatment” value [16] is given as “neurotoxicity”.

For CN[C@H](CC(C)C)C(=O)N[C@H]1C(=O)N[C@@H](CC(N)=O)C(=O)N[C@H]2C(=O)N[C@H]3C(=O)N[C@H](C(=O)N[C@H](C(=O)O)c4cc(O)cc(O)c4-c4cc3ccc4O)[C@H](O)c3ccc(c(Cl)c3)Oc3cc2cc(c3O[C@@H]2O[C@H](CO)[C@@H](O)[C@H](O)[C@H]2O[C@H]2C[C@](C)(N)[C@H](O)[C@H](C)O2)Oc2ccc(cc2Cl)[C@H]1O [vancomycin], the “Toxicity associated with long term treatment” value [16] is given as “nephrotoxicity”.

Source: patent US10723746B2, “Oxazolidinone-quinolone hybrid antibacterials for the parenteral treatment or prophylaxis of bacterial diseases” (MORPHOCHEM AKTIENGESELLSCHAFT FÜR KOMBINATORISCHE CHEMIE, priority 2013, dated 2020)
